Laboratory results reported in patent publication US20110166112A1, “METHOD FOR STIMULATING PLATELET PRODUCTION” (Eisai, Inc., priority 2009, published 2011).

Test system: subjects with chronic idiopathic thrombocytopenic purpura (ITP)
Assay: Phase 2 28-day study of E5501 tablets: safety and tolerability (TEAEs, discontinuations)
Type: in vivo, human
Conditions: for Discontinued study, primary reason Adverse Event or SAE / Discontinued study, primary reason Platelet Count Increase to ≧500 K/mm^3: Pharmacokinetic Population; for Abdominal pain / Diarrhoea / Ecchymosis / Epistaxis / Fatigue / Headache / Migraine / Nausea / Pain in extremity / Petechiae / Platelet count increased / Upper respiratory tract infection / Vomiting: TEAE
Protocol: This was a phase 2, multi-center, double-blind, randomized, placebo-controlled, dose-ranging, parallel group study of E5501 tablets, used in the treatment of subjects with chronic idiopathic thrombocytopenic purpura (ITP) refractory to or relapsed after at least one prior ITP therapy. Subjects who met all entry criteria were randomly assigned in a 3:3:3:3:1 ratio to one of the following five treatment groups dosed daily for 28 days: 1) E5501 2.5 mg; 2) E5501 5 mg; 3) E5501 10 mg; 4) E5501 20 mg; or 5) placebo (PBO). Each E5501 dosing group consisted of 15 subjects while the PBO group consisted of 5 subjects. All study subjects were evaluated weekly (days 7, 14, 21 and 28) for safety and efficacy while receiving study treatment, with a final assessment for safety and effectiveness performed 4 weeks after the last study dose (day 56) unless the subject entered the follow-on study. Platelet counts were also measured on day 3 and day 5.
The safety and tolerability parameters included adverse events, clinical laboratory parameters, study drug exposure, vital electrocardiograms, concomitant medications, serum pregnancy tests for women of childbearing potential and physical examinations including height, weight, general appearance and recording of vital signs.
The populations of interest were defined as follows: • The randomized population included all subjects who were randomized into the study. • The safety population included all randomized subjects who receive at least one dose of study drug and have at least one safety assessment. • The pharmacokinetic (PK) population included all subjects who provided blood sample for analysis of E5501. A subject was included in this population if the subject had at least one blood draw for PK assessment. • The full analysis set (FAS) included all subjects who provided adequate data to derive at least one efficacy assessment. […] The day 28 visit window was defined to be from day 25, to last dose day+1, inclusively; • Other major protocol violations that impacted the platelet endpoint evaluation. Results from Planned Analyses
Subject Disposition. Sixty four subjects were randomly assigned to treatment in this study. All treated subjects provided adequate efficacy data and therefore were included in the FAS population. The number and percentage of subjects who completed treatment or discontinued prematurely were summarized by treatment groups as shown in Table 1. In addition, the number and percentage of subjects who withdrew were summarized by reason for discontinuation by treatment group. The majority (>85%) of subjects completed the study across all dose groups for the FAS, randomized, and safety populations. Seven subjects who discontinued the study early all were from E5501 dose groups: two subjects in each of 2.5, 10 and 20 mg dose groups and one subject in the 5 mg dose group.

SMILES: O=C(Nc1nc(-c2cc(Cl)cs2)c(N2CCN(C3CCCCC3)CC2)s1)c1cnc(N2CCC(C(=O)O)CC2)c(Cl)c1 [E5501, 1-(3-chloro-5-{[4-(4-chlorothiophen-2-yl)-5-(4-cyclohexylpiperazin-1-yl)thiazol-2-yl]carbamoyl}pyridine-2-yl)piperidine-4-carboxylic acid]
- diarrhea, nausea and vomiting, total events: 12 events
- subjects whose platelet count decreased to below that of baseline upon discontinuation of E5501: 3 subjects
- subjects with diarrhea, nausea and vomiting events: 7 subjects
- tolerability and safety profile: well tolerated and had a favorable safety profile
- Death (2.5 mg): 0 n (%)
- Serious TEAEs (Any Serious TEAE) (2.5 mg): 2 (13.3) n (%)
- TEAE Leading to Study Treatment Dose Interruption (2.5 mg): 0 n (%)
- TEAE Leading to Study Treatment Withdrawal (2.5 mg): 0 n (%)
- TEAEs (2.5 mg): 12 (80.0) n (%)
- Treatment-Related Serious TEAEs (2.5 mg): 0 n (%)
- Treatment-Related TEAEs (2.5 mg): 6 (40.0) n (%)
- number of serious TEAEs (2.5 mg): 2
- Death (5 mg): 0 n (%)
- Serious TEAEs (Any Serious TEAE) (5 mg): 0 n (%)
- TEAE Leading to Study Treatment Dose Interruption (5 mg): 1 (6.7) n (%)
- TEAE Leading to Study Treatment Withdrawal (5 mg): 1 (6.7) n (%)
- TEAEs (5 mg): 13 (86.7) n (%)
- Treatment-Related Serious TEAEs (5 mg): 0 n (%)
- Treatment-Related TEAEs (5 mg): 11 (73.3) n (%)
- Death (10 mg): 0 n (%)
- Serious TEAEs (Any Serious TEAE) (10 mg): 1 (7.1) n (%)
- TEAE Leading to Study Treatment Dose Interruption (10 mg): 0 n (%)
- TEAE Leading to Study Treatment Withdrawal (10 mg): 1 (7.1) n (%)
- TEAEs (10 mg): 11 (78.6) n (%)
- Treatment-Related Serious TEAEs (10 mg): 1 (7.1) n (%)
- Treatment-Related TEAEs (10 mg): 8 (57.1) n (%)
- number of serious TEAEs (10 mg): 4
- Death (20 mg): 0 n (%)
- Serious TEAEs (Any Serious TEAE) (20 mg): 0 n (%)
- TEAE Leading to Study Treatment Dose Interruption (20 mg): 2 (13.3) n (%)
- TEAE Leading to Study Treatment Withdrawal (20 mg): 2 (13.3) n (%)
- TEAEs (20 mg): 14 (93.3) n (%)
- Treatment-Related Serious TEAEs (20 mg): 0 n (%)
- Treatment-Related TEAEs (20 mg): 10 (66.7) n (%)
- subjects who withdrew due to excessively increased platelet counts (≧500,000/mm^3) (20 mg): 2 subjects
- Discontinued study, primary reason Adverse Event or SAE (2.5 mg): 0 n (%)
- Discontinued study, primary reason Platelet Count Increase to ≧500 K/mm^3 (2.5 mg): 0 n (%)
- Discontinued study, primary reason Adverse Event or SAE (5 mg): 1 (6.7) n (%)
- Discontinued study, primary reason Platelet Count Increase to ≧500 K/mm^3 (5 mg): 0 n (%)
- Discontinued study, primary reason Adverse Event or SAE (10 mg): 1 (7.1) n (%)
- Discontinued study, primary reason Platelet Count Increase to ≧500 K/mm^3 (10 mg): 0 n (%)
- Discontinued study, primary reason Adverse Event or SAE (20 mg): 0 n (%)
- Discontinued study, primary reason Platelet Count Increase to ≧500 K/mm^3 (20 mg): 2 (13.3) n (%)
- Discontinued study, primary reason Adverse Event or SAE (Total E5501): 2 (3.4) n (%)
- Discontinued study, primary reason Platelet Count Increase to ≧500 K/mm^3 (Total E5501): 2 (3.4) n (%)
- Abdominal pain (2.5 mg): 0 n (%)
- Diarrhoea (2.5 mg): 1 (6.7) n (%)
- Ecchymosis (2.5 mg): 0 n (%)
- Epistaxis (2.5 mg): 4 (26.7) n (%)
- Fatigue (2.5 mg): 2 (13.3) n (%)
- Headache (2.5 mg): 4 (26.7) n (%)
- Migraine (2.5 mg): 0 n (%)
- Nausea (2.5 mg): 0 n (%)
- Pain in extremity (2.5 mg): 0 n (%)
- Petechiae (2.5 mg): 0 n (%)
- Platelet count increased (2.5 mg): 0 n (%)
- Upper respiratory tract infection (2.5 mg): 1 (6.7) n (%)
- Vomiting (2.5 mg): 1 (6.7) n (%)
- Abdominal pain (5 mg): 2 (13.3) n (%)
- Diarrhoea (5 mg): 2 (13.3) n (%)
- Ecchymosis (5 mg): 0 n (%)
- Epistaxis (5 mg): 2 (13.3) n (%)
- Fatigue (5 mg): 4 (26.7) n (%)
- Headache (5 mg): 3 (20.0) n (%)
- Migraine (5 mg): 0 n (%)
- Nausea (5 mg): 0 n (%)
- Pain in extremity (5 mg): 2 (13.3) n (%)
- Petechiae (5 mg): 0 n (%)
- Platelet count increased (5 mg): 0 n (%)
- Upper respiratory tract infection (5 mg): 0 n (%)
- Vomiting (5 mg): 0 n (%)
- Abdominal pain (10 mg): 0 n (%)
- Diarrhoea (10 mg): 0 n (%)
- Ecchymosis (10 mg): 3 (21.4) n (%)
- Epistaxis (10 mg): 1 (7.1) n (%)
- Fatigue (10 mg): 4 (28.6) n (%)
- Headache (10 mg): 1 (7.1) n (%)
- Migraine (10 mg): 0 n (%)
- Nausea (10 mg): 2 (14.3) n (%)
- Pain in extremity (10 mg): 0 n (%)
- Petechiae (10 mg): 0 n (%)
- Platelet count increased (10 mg): 0 n (%)
- Upper respiratory tract infection (10 mg): 2 (14.3) n (%)
- Vomiting (10 mg): 1 (7.1) n (%)
- Abdominal pain (20 mg): 0 n (%)
- Diarrhoea (20 mg): 2 (13.3) n (%)
- Ecchymosis (20 mg): 0 n (%)
- Epistaxis (20 mg): 2 (13.3) n (%)
- Fatigue (20 mg): 2 (13.3) n (%)
- Headache (20 mg): 4 (26.7) n (%)
- Migraine (20 mg): 2 (13.3) n (%)
- Nausea (20 mg): 1 (6.7) n (%)
- Pain in extremity (20 mg): 1 (6.7) n (%)
- Petechiae (20 mg): 2 (13.3) n (%)
- Platelet count increased (20 mg): 4 (26.7) n (%)
- Upper respiratory tract infection (20 mg): 0 n (%)
- Vomiting (20 mg): 2 (13.3) n (%)
- Abdominal pain (Total E5501): 2 (3.4) n (%)
